From article PMC10250618, “Synthesis, structure-activity relationships and biological evaluation of benzimidazole derived sulfonylurea analogues as a new class of antagonists of P2Y1 receptor” (Frontiers in Pharmacology, 2023)
Where two headings read alike, the source gives them in different places.

Legend:
[1] = target: T1, t-P2Y1 (Meleagris gallopavo, UniProt P49652); assay: Calcium mobilization assay, t-P2Y1 transfected 1321N1 astrocytoma cells; format: cell-based; conditions: for inhibition at 100 µM: 1321-N1, final conc of 100 μM
T1 construct: host or cells: human 1321N1 astrocytoma cells, stably transfected
Protocol: (§1) Dr. Gary A. Weisman provided human-1321N1 astrocytoma cells that had been transfected by the tP2Y1R, hP2Y2R, hP2Y4R, and rP2Y6R and untransfected 1321N1 astrocytoma cells (University of Missouri Mo., Bond Life Science Center). The DMEM Dulbecco’s Modified Eagle -Medium (Gibco) was added in flasks to cultivate the cell line. 10% of the Fetal bovine serum was also added to the media together with 500 μg/mL of Geneticin (G418) and 1% of the Pen/Strep. The cells in T-75 flask were then cultured and incubated in a CO2 incubator which was maintained at (5%) and 37°C temperature until 90% of the cells were confluent. Throughout the experiment, cells were periodically checked for the confluency and strictly watched for the microbial contamination.
(§2) The FLUOstar Galaxy (BMG LABTECH GmbH, Ortenberg, Germany) microplate reader with two injectors was used to measure the Ca^2+ fluorescence of synthetic compounds. For this assay, 1321N1 transfected cells (t-P2Y1, h-P2Y2, h-P2Y4, and r-P2Y6) were cultured in T-75 flask. When cells reached the confluency of 80%–90%, they were washed with PBS and then Trypsin was added. After trypsinization for 3 min, 20,000 cells/well were allowed to seed in a black wall and 96 well clear bottom plate which was coated with Poly-D-Lysine and allowed to incubate for 24 h in 37°C, 5% CO2 incubator. After incubation, 200 μL culture media was changed with 100 μL HBSS containing Fura-2 AM which is calcium chelating dye and allowed the plate to incubate for 45 min in dark at temp of 37°C in incubator which is maintained with carbon dioxide (5% CO2). After incubation for 45 min, synthesized molecules were added to HBSS washed cells in each well of 96 well plate and re-incubated for 30 min at 37°C. In next step, injection of the endogenous ligand such as ADP through the injector was followed by excitation and emission measurements of Fura-2 AM at 380/520 nm and 340/520. Final volume of the assay per well 200 μL. IC50 values were computed for the compounds displaying more than 50% of activity using Prism 5.0 software (Graph Pad., Inc., San Diego. California, United States) by using analysis i.e., nonlinear regression ([Kassack et al., 2002]; [Ullmann et al., 2005]).

[2] = target: T2, h-P2Y2 (Homo sapiens, UniProt P41231); assay: Calcium mobilization assay, h-P2Y2 transfected 1321N1 astrocytoma cells; format: cell-based; conditions: for inhibition at 100 µM: 1321-N1, final conc of 100 μM
T2 construct: host or cells: human 1321N1 astrocytoma cells, stably transfected
Protocol: as §1, §2

[3] = target: T3, h-P2Y4 (Homo sapiens, UniProt P51582); assay: Calcium mobilization assay, h-P2Y4 transfected 1321N1 astrocytoma cells; format: cell-based
T3 construct: host or cells: human 1321N1 astrocytoma cells, stably transfected
Protocol: as §1, §2

[4] = target: T4, r-P2Y6 (Rattus norvegicus, UniProt Q63371); assay: Calcium mobilization assay, r-P2Y6 transfected 1321N1 astrocytoma cells; format: cell-based; conditions: for inhibition at 100 µM: 1321-N1, final conc of 100 μM
T4 construct: host or cells: human 1321N1 astrocytoma cells, stably transfected
Protocol: as §1, §2

[5] = MTT assay, non-transfected 1321N1 astrocytoma cells; format: cell-based, human; conditions: human, non-transfected 1321N1 astrocytoma cells; at 50 µM; non-transfected astrocytoma 1321N1 cells; triplicate; read-out: H-1321N1 Cell Line (%cytotoxicity ±SEM)
Protocol: A 96-well plate was used to plate 20,000 human 1321N1 astrocytoma cells and allowed for incubation for 24 h at temp of 37°C in CO2 (5%) incubator. Next to this, the prepared culture media was changed to media which was free from FBS, the test compounds were added and the incubation process was repeated. After incubation of 24 h, the serum free media from the wells was discarded, and 100 μL of the reagent i.e., MTT reagent was pipetted. Plate was then additionally incubated at 37°C for 4 h. Utilizing a microplate reader, absorbance was determined at 570 nm and 630 nm for calculation of cell viability (FLUOstarOmega Microplate Reader-BMG LABTECH GmbH, Ortenberg, Germany) ([Sauer et al., 2009]).

[6] = MTT assay, HEK-293; format: cell-based; conditions: human, HEK-293 cells; at 50 µM; triplicate; read-out: HEK-293 Cell Line (%cytotoxicity ±SEM)
[7] = MTT assay, HeLa; format: cell-based; conditions: human, HeLa cells; at 50 µM; triplicate; read-out: HeLa Cell Line (%cytotoxicity ±SEM)
[8] = Ca2+ mobilization inhibition, transfected 1321N1 cells, 100 μM ADP, read-out: IC50 ± SEM t-P2Y1
[9] = 1321-N1, final conc of 100 μM, 500 μM UTP, read-out: % Inhibition h-P2Y4
[10] = Ca2+ mobilization inhibition, transfected 1321N1 cells, 100 μM of UDP, read-out: IC50 ± SEM r-P2Y6
[11] = Ca2+ mobilization inhibition, transfected 1321N1 cells, 500 μM ATP, read-out: IC50 ± SEM h-P2Y2
[12] = Ca2+ mobilization inhibition, transfected 1321N1 cells, 500 μM UTP, read-out: IC50 ± SEM h-P2Y4

T4 sequence (Q63371 whole entry): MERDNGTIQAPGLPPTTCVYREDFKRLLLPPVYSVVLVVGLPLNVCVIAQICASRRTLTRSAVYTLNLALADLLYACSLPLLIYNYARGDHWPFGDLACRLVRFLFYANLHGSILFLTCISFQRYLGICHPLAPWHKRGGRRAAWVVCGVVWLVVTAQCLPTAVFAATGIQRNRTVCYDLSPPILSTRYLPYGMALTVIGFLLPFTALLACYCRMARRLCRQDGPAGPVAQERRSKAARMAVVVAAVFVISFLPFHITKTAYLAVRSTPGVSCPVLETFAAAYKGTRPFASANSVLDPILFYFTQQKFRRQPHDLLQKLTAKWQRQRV
T2 sequence (P41231 whole entry): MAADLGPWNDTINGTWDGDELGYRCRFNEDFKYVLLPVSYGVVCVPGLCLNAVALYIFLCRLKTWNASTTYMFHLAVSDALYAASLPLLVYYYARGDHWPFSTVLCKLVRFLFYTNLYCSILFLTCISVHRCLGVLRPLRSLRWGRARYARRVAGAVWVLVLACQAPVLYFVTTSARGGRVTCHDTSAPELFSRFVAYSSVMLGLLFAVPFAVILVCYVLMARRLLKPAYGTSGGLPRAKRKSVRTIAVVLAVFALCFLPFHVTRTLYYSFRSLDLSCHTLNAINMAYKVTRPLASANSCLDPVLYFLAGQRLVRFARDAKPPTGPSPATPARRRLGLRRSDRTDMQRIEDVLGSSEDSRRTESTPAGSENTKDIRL
T3 sequence (P51582 whole entry): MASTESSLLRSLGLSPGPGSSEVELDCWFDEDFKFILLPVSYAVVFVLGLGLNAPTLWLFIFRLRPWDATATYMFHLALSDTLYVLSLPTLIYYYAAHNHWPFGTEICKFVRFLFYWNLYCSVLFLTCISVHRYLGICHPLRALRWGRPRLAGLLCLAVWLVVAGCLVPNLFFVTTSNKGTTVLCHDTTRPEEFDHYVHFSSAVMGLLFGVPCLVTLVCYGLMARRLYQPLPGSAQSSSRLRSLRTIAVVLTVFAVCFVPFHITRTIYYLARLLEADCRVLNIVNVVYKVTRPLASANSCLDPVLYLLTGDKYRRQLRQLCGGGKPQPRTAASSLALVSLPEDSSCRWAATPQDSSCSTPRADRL
T1 sequence (P49652 whole entry): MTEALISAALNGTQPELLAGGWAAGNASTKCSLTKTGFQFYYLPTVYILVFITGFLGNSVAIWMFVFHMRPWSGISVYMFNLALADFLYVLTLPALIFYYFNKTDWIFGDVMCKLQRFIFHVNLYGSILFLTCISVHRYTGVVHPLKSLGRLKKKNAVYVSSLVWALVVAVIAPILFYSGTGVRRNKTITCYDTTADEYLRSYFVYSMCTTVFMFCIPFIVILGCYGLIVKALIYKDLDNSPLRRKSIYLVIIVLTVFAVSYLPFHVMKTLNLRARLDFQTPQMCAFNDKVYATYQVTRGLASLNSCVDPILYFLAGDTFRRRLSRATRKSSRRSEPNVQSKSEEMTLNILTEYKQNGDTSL

SMILES | IC50 [1, 8] [µM] | inhibition at 100 µM ([2]; 500 μM ATP) [%] | inhibition at 100 µM [3, 9] [%] | IC50 [4, 10] [µM] | cytotoxicity at 24 h, 50 µM [5] [%] | cytotoxicity at 24 h, 50 µM [6] [%] | cytotoxicity at 24 h, 50 µM [7] [%] | melting point [°C] | inhibition at 100 µM ([1]; 100 μM ADP) [%] | inhibition at 100 µM ([4]; 100 μM of UDP) [%] | IC50 [1] [µM] | IC50 [2] [µM] | inhibition at 100 µM ([3]; 1321-N1, read-out: % Inhibition h-P2Y4) [%] | IC50 [4] [µM] | IC50 [2, 11] [µM] | IC50 [3, 12] [µM] | decreased potency relatively to the derivative 1h ([1]; P2Y1) | IC50 [3] [µM]
Nc1nc2cc([N+](=O)[O-])ccc2n1C(=O)NS(=O)(=O)c1cc(Cl)cc(Cl)c1O [1a, 2-Amino-N-((3,5-dichloro-2-hydroxyphenyl)sulfonyl)-5-nitro-1H-benzo [d]imidazole-1-carboxamide] | 0.37 ± 0.02 | 44 | 41 | 0.66 ± 0.04 | 27.4 ± 0.5 | 13.3 ± 0.1 | 22.2 ± 1.1 | 107 to 110 | – | – | – | – | – | – | – | – | – | –
Cc1ccc(S(=O)(=O)NC(=O)n2c(N)nc3cc([N+](=O)[O-])ccc32)cc1 [1b, 2-Amino-5-nitro-N-tosyl-1H-benzo [d]imidazole-1-carboxamide] | – | 38 | 18 | – | 17.3 ± 0.8 | 21.3 ± 0.2 | 21.6 ± 0.2 | 113 to 115 | 33 | 21 | – | – | – | – | – | – | – | –
Cc1ccc([N+](=O)[O-])cc1S(=O)(=O)NC(=O)n1c(N)nc2cc([N+](=O)[O-])ccc21 [1c, 2-Amino-N-((2-methyl-5-nitrophenyl)sulfonyl)-5-nitro-1H-benzo [d]imidazole-1-carboxamide] | – | – | – | – | 21.1 ± 0.6 | 19.5 ± 0.4 | 26.4 ± 0.7 | 117 to 119 | – | – | 11.11 ± 0.04 | 6.32 ± 1.1 | 42 | 16.1 ± 0.59 | – | – | – | –
Nc1nc2ccccc2n1C(=O)NS(=O)(=O)c1cc(Cl)cc(Cl)c1O [1e, 2-Amino-N-((3,5-dichloro-2-hydroxyphenyl)sulfonyl)-1H-benzo [d]imidazole-1-carboxamide] | 0.46 ± 0.01 | – | – | 0.75 ± 0.08 | 39.9 ± 0.2 | 16.3 ± 0.2 | 21.3 ± 0.6 | 115 to 117 | – | – | – | – | – | – | 5.5 ± 1.21 | 0.6 ± 0.01 | – | –
Nc1nc2ccccc2n1C(=O)NS(=O)(=O)c1ccc(Cl)cc1 [1f, 2-Amino-N-((4-chlorophenyl)sulfonyl)-1H-benzo [d]imidazole-1-carboxamide] | 0.94 ± 0.01 | – | 47 | 9.3 ± 1.12 | 23.6 ± 0.8 | 21.2 ± 0.7 | 16.4 ± 0.2 | 110 to 112 | – | – | – | – | – | – | 8.41 ± 0.07 | – | about five | –
Cc1ccc([N+](=O)[O-])cc1S(=O)(=O)NC(=O)n1c(N)nc2ccccc21 [1g, 2-Amino-N-((2-methyl-5-nitrophenyl)sulfonyl)-1H-benzo [d]imidazole-1-carboxamide] | 11.2 ± 0.71 | 33 | 13 | – | 46.2 ± 0.2 | 14.3 ± 0.3 | 11.6 ± 1.1 | 183 to 184 | – | 40 | – | – | – | – | – | – | – | –
Nc1nc2cc(Cl)ccc2n1C(=O)NS(=O)(=O)c1ccc(Cl)cc1 [1i, 2-Amino-5-chloro-N-((4-chlorophenyl)sulfonyl)-1H-benzo [d]midazole-1-carboxamide] | 1.21 ± 0.07 | – | 34 | – | 38.7 ± 0.8 | 36.2 ± 0.1 | 39.3 ± 0.4 | 129 to 131 | – | 41 | – | – | – | – | 15.7 ± 1.48 | – | – | –
Cc1ccc([N+](=O)[O-])cc1S(=O)(=O)NC(=O)n1c(N)nc2cc(Cl)ccc21 [1j, 2-Amino-5-chloro-N-((2-methyl-5-nitrophenyl)sulfonyl)-1H-benzo [d]imidazole-1-carboxamide] | 13.4 ± 0.22 | 32 | 42 | 25.4 ± 3.1 | 44.3 ± 0.6 | 38.2 ± 0.4 | 26.1 ± 0.7 | 144 to 146 | – | – | – | – | – | – | – | – | – | –
Nc1nc2cc(Cl)ccc2n1C(=O)NS(=O)(=O)c1ccc([N+](=O)[O-])cc1 [1k, 2-Amino-5-chloro-N-((4-nitrophenyl)sulfonyl)-1H-benzo [d]imidazole-1-carboxamide] | 12.4 ± 1.03 | – | – | 8.49 ± 1.23 | 41.7 ± 0.2 | 27.2 ± 0.2 | 21.7 ± 0.9 | 183 to 184 | – | – | – | – | – | – | 11.1 ± 0.94 | 16.6 ± 1.12 | – | –
O=C(NS(=O)(=O)c1ccc(-c2ccccc2)cc1)n1c(-c2ccccc2)nc2ccccc21 [1l, N-([1.1′-biphenyl]-4-ylsulfonyl)-2-phenyl-1H-benzo [d]imidazole-1-carboxamide] | – | 34 | 22 | – | 47.2 ± 0.4 | 21.3 ± 0.6 | 28.3 ± 1.2 | 133 to 135 | 27 | 43 | – | – | – | – | – | – | – | –
O=C(NS(=O)(=O)c1ccccc1)n1c(-c2ccccc2)nc2ccccc21 [1m, 2-Phenyl-N-(phenylsulfonyl)-1H-benzo [d]imidazole-1-carboxamide] | – | 37 | 16 | – | 37.9 ± 0.7 | 33.3 ± 0.3 | 39.4 ± 1.3 | 154 to 156 | 29 | 21 | – | – | – | – | – | – | – | –
O=C(NS(=O)(=O)c1ccc(Cl)cc1)n1c(-c2ccccc2)nc2ccccc21 [1n, N-((4-chlorophenyl)sulfonyl)-2-phenyl-1H-benzo [d]imidazole-1-carboxamide] | 5.69 ± 0.23 | 21 | 19 | 7.06 ± 1.47 | 26.5 ± 0.4 | 38.7 ± 0.3 | 22.4 ± 0.8 | 158 to 160 | – | – | – | – | – | – | – | – | – | –
O=C(NS(=O)(=O)c1ccc([N+](=O)[O-])cc1)n1c(-c2ccccc2)nc2ccccc21 [1o, N-((4-nitrophenyl)sulfonyl)-2-phenyl-1H-benzo [d]imidazole-1-carboxamide] | – | – | 46 | – | 24.3 ± 0.8 | 27.9 ± 0.8 | 24.3 ± 0.4 | 162 to 164 | 46 | 32 | – | – | – | – | 18.2 ± 0.77 | – | – | –
COc1ccc(S(=O)(=O)NC(=O)n2c(Cl)nc3ccccc32)cc1 [1p, 2-Chloro-N-((4-methoxyphenyl)sulfonyl)-1H-benzo [d]imidazole-1-carboxamide] | 5.59 ± 0.91 | 12 | 20 | 16.3 ± 0.83 | 21.2 ± 0.3 | 24.2 ± 0.7 | 20.5 ± 0.2 | 160 to 162 | – | – | – | – | – | – | – | – | – | –
Nc1c(S(=O)(=O)O)cc(Nc2ccc(Nc3nc(Cl)nc(Nc4cccc(S(=O)(=O)O)c4)n3)c(S(=O)(=O)O)c2)c2c1C(=O)c1ccccc1C2=O [Reactive Blue 2, reference compound] | – | – | – | 2.8 ± 0.11 | – | – | – | – | – | – | – | 0.57 ± 0.02 | – | – | – | – | – | 8.4 ± 1.2
